# Literature values in patent publication US5366983A, “Use of quaternary ammonium compounds to remove salmonella contamination from meat products” (The Board of Trustees of The University of Arkansas, priority 1992, dated 1994).
# Experiments:
# [1] = tested on: Staphylococcus aureus ATCC 29213; conditions: S. aureus; cited from earlier work
# [2] = tested on: Escherichia coli ATCC 25922; conditions: E. coli; cited from earlier work
smiles,measurement,setting,value
CC1(C)S[C@@H]2[C@H](NC(=O)[C@H](N)c3ccccc3)C(=O)N2[C@H]1C(=O)O [ampicillin],acceptable MIC by NCCLS,[1],0.5 to 2 µg/mL
same,acceptable MIC by NCCLS,[2],2 to 8 µg/mL
